Measured values as given in US5036097A, “Phenylbutyl nitrone compositions and methods for prevention of gastric ulceration” (Oklahoma Medical Research Foundation, priority 1990, dated 1991).

How the values were obtained:
[1] = system: piroxicam-induced gastric ulcers; assay: suppression of piroxicam-induced gastric ulcers by interventions (PBN, free radical scavengers, ascorbate); type: in vivo, rat (male Sprague-Dawley)
Experimental: FIG. 2 is a graph of % control ulceration from piroxicam versus the % ulceration in the presence of free radical scavengers. The […] scavenger dimethylthiourea (DMTU, 500 mg/kg i.p.) was given 24 hours and 1 hour before piroxicam. […] The antioxidant butylated hydroxytoluene (BHT, 25 mg/kg/day i.p. in corn oil) was given for three days before and again 1 hour before piroxicam. The % control ulceration is determined by averaging the ratios of cm^2 ulceration in control stomachs from rats given piroxicam alone, and multiplying×100. +P< 0.01 compared to piroxicam alone.
Male Sprague-Dawley rats (Charles River, Wilmington, Mass.) weighing 300-325 g were housed individually in wire bottomed cages to prevent ingestion of hair and feces. Animals were maintained without food for 48 hours and without water for 24 hours prior to each experiment. Piroxicam or aspirin and other NSAIDS were suspended in a vehicle of 1% carboxymethylcellulose, 0.1% Tween 80 and 0.15 M HCl, and administered in a volume of 1 ml on the morning of study by oral gavage using an 18 gauge curved blunt needle (Popper and Sons, New Hyde Park, N.Y.). One ml of vehicle alone was administered for control experiments. HCl was added to the vehicle to insure an acid environment in the stomach in all studies. […] Four hours after the administration of NSAID or vehicle, rats were euthanized with sodium pentobarbital (100 mg/kg IP), and the surface area of ulceration per stomach was quantitated using morphometric techniques. Stomachs were removed, the lumen was exposed by an incision along the radius of greater curvature, and the stomach was washed in phosphate buffered saline. The luminal surface was laid out on a flat surface with gross folds removed by gentle distension. The percentage of surface involved with submucosal hemorrhage was then determined by point counting, as described by Weibel, E. R. Stereological Methods: Practical Methods for Biological Morphometry. Academic Press, New York 1980. This was done by tabulation of the percentage of points over ulcerations using a point counting eyepiece graticle (16×16 points in a square format). At the 12X magnification used on the Wild dissecting microscope (Wild-Heerbrugg, Basel, Switzerland), the graticle covered a 1 cm^2 area of the surface. Four to five non-overlapping sampling sites were taken to fully cover the exposed surface. To determine the total luminal surface area, the outline of the outer boundary of the stomach was traced using a transparent acetate sheet, and the area was determined from planimetry. The surface area of ulcerated regions per stomach was then determined by multiplying the surface density of ulceration regions by the luminal surface area of the stomach.
Differences in total luminal surface area in cm^2, surface area of ulcerated regions per stomach and biochemical analyses between each treatment intervention and its corresponding untreated control group are compared using the Mann-Whitney U Test, Dixon, W. J., Massey, F. J., Jr. Introduction to statistical methods, 4th edition. (New York: McGraw Hill, 1983). […] In vitro studies are compared using the Student's unpaired T-test, Dixon, W. J., Massey, F. J., Jr. Introduction to statistical methods, 4th edition. (New York: McGraw Hill, 1983). Values are expressed as mean±SEM. Significance is assumed when P<0.05.
In each experiment, the surface area of gastric ulceration produced by piroxicam in 15 treated rats was compared to that in 15 rats of the same age and size that were fasted simultaneously but which received no intervention. Phenylbutyl nitrone (30 mg/kg) was given orally in water 1 hour before piroxicam and also added to vehicle when piroxicam was administered. When intervention were given with piroxicam, the pH of the final mixture was adjusted if necessary to equal that of piroxicam and vehicle alone.

[2] = system: gastric mucosal glutathione; assay: glutathione in gastric mucosa; type: in vivo, rat; conditions: 4 h after piroxicam
Experimental: MEASUREMENT OF GLUTATHIONE IN GASTRIC MUCOSA.
Gastric mucosal glutathione is measured in piroxicam-and vehicle-treated rat stomachs. Four hours after piroxicam or vehicle, stomachs are opened, washed with ice cold saline, and spread along a flat surface with lumens exposed. The gastric mucosa is then removed by scraping with a surgical blade. The mucosa is homogenized on ice in 1 ml of 1.15% KCl. Two aliquots of 250 μl are snap frozen in liquid nitrogen and stored at -70° C. for later determination of total glutathione by the method of Anderson, M. E. Methods Enzymol 113:548-555 (1985) and protein by a modification of the Lowry method, described by Bennett, J. P. Techniques Lipid Membrane Biochem. B408:1-22 (1982), using bovine serum albumin as a standard. Results are expressed as nmole/mg protein. To measure oxidized glutathione (GSSG), the remaining 500 μl is mixed with an equal volume of N-ethylmaleimide (NEM) in water (10 mM final concentration of NEM), snap frozen and stored at -70° C. After thawing for analysis, this mixture is passed over a C-18 Sep-Pak column (Waters Associates, Milford, Mass.) and washed with 1 ml phosphate buffer (pH 7.5). This technique for removing excess NEM has been previously shown to result in >90% recovery of GSSG. GSSG is then assayed by the method used above to determine total glutathione.

[3] = system: mitochondrial respiration; assay: generation of O2- by mitochondrial respiration; type: biochemical, rat

## CN1C(C(=O)Nc2ccccn2)=C(O)c2ccccc2S1(=O)=O [piroxicam]
[1]; ascorbate-treated stomachs (with piroxicam) vs piroxicam alone, P<0.001
  ulceration (ascorbate experiment): 0.031±0.009 cm^2
[1]; piroxicam 23 mg/kg only, or plus PBN 30 mg/kg orally 1 hour before and with piroxicam, p<0.0052
  ulcerations/unit area: 0.229±0.145 ulcerations/unit area
[2]; difference vs vehicle not statistically significant
  total glutathione in gastric mucosa: 0.33±0.03 nmoles/mg protein
[2]; vehicle 6.4 0.7%, not statistically significant
  fraction of GSSG: 8.9±0.9%
[3]
  generation of O2- by mitochondrial respiration: did not increase generation of O2 -
